# Source: patent US20120027687A1, “FATTY ACID PROTEIN KINASE C ACTIVATORS AND ANTICOAGULANT FOR THE TREATMENT OF STROKE” (priority 2010, published 2012)
# Target: T1, PKCε (Homo sapiens, UniProt Q02156)
# T1 construct: purchased Calbiochem
# T1 sequence (Q02156 1-737): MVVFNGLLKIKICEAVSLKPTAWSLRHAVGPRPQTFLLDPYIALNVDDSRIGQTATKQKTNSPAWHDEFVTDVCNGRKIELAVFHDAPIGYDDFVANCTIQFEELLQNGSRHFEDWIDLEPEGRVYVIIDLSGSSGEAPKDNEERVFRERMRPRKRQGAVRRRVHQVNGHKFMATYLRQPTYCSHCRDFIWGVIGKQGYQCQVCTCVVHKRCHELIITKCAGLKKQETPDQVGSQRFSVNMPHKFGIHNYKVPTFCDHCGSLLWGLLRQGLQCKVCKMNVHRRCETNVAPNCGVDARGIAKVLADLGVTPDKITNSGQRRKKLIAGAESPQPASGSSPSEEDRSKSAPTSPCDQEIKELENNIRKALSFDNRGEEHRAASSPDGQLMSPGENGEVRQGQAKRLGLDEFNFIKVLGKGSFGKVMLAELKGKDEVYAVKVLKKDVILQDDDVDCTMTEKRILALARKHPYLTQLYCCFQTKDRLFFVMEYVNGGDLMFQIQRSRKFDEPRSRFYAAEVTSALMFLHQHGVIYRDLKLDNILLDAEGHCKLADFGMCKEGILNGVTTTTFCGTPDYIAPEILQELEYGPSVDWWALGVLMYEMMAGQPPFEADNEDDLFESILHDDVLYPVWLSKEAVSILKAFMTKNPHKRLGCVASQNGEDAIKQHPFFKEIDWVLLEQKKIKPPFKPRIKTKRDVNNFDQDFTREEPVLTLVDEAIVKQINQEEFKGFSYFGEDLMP
# Assay: PKC assay with purified PKCε
# Assay type: biochemical
# Conditions: not given
# Method: PKC assay. […] 0.5 micro Ci[^γ32P]ATP was added. […] The reaction was stopped by spotting the reaction mixtures on 1×2 cm strips of cellulose phosphate paper (Whatman P81) and immediately washing twice for 1 hr in 0.5% H3PO4. The cellulose phosphate strips were counted in a scintillation counter. In some experiments, phosphatidylserine, diacylglycerol, and/or calcium were removed. […]
# To determine their PKC isozyme specificity, fatty acid derivatives were preincubated with purified PKC for five minutes and the PKC activity was measured radiometrically.
Molecule,"concentration needed to activate PKC, times lower than for BR-101 (DCP-LA)",concentrations at which PKCε is inhibited
"CCCCCC1CC1CC1CC1CC1CC1CC1CC1CCCC(=O)OC (stereo not drawn) [BR-115, methyl 4-(2-((2-((2-((-pentylcyclopropyl)methyl)cyclopropyl)methyl)cyclopropyl)methyl)cyclopropyl)butanoate methyl ester]",approximately 100 times,–
CCC1CC1CC1CC1CC1CC1CC1CC1CC1CC1CCCC(=O)OC (stereo not drawn) [BR-114],approximately 100 times,–
"CCCCC[C@H]1O[C@H]1CC1CC1CCCCCCCC(=O)OC (stereo partly drawn) [BR-109, vernolic acid methyl ester cyclopropane]",–,above 1 μM

# Same assay, conditions: preincubated five minutes, radiometric
row,Molecule,"effect on purified PKCε (FIG. 7, FIG. 8)"
1,"CCCCCC1CC1CC1CC1CCCCCCCCO (stereo not drawn) [BR-105, linoleic alcohol dicyclopropane]",little or no effect
2,"CCCCCC1CC1CC1CC1CC1CC1CC1CC1CCCC(=O)OC (stereo not drawn) [BR-115, methyl 4-(2-((2-((2-((-pentylcyclopropyl)methyl)cyclopropyl)methyl)cyclopropyl)methyl)cyclopropyl)butanoate methyl ester]",activated
3,CCC1CC1CC1CC1CC1CC1CC1CC1CC1CC1CCCC(=O)OC (stereo not drawn) [BR-114],activated
4,"CCCCCC1OC1C/C=C\CCCCCCCC(=O)OC (stereo in doubt) [BR-117, vernolic acid methyl ester]",little or no effect
5,"CCC1CC1CC1CC1CC1CC1CCCCCCCCO (stereo not drawn) [BR-104, linolenic alcohol tricyclopropane]",little or no effect
6,epoxystearic acid [BR-116],little or no effect

# Target: PKC
# Assay: not given
# Conditions: A-ring bryologs; read-out: affinity for PKC; cited from earlier work
row,Molecule,Ki [nM]
1,CCCCCCCC(=O)OC1C(=CC(=O)OC)CC2CC(CO)OC(=O)CC(O)CCOC(c3ccccc3)CC3CCOC(C=CC(C)(C)C1(O)O2)O3 (stereo not drawn) [bryolog 4],2.3
2,CCCCCCCC(=O)OC1C(=CC(=O)OC)CC2CC(CO)OC(=O)CC(O)CCOC(CCCc3ccc(Br)cc3)CC3CCOC(C=CC(C)(C)C1(O)O2)O3 (stereo not drawn) [bryolog 5],1.9
3,CCCCCCCC(=O)OC1C(=CC(=O)OC)CC2CC(CO)OC(=O)CC(O)CCOC(C(C)(C)C)CC3CCOC(C=CC(C)(C)C1(O)O2)O3 (stereo not drawn) [bryolog 3],6.5
